Results as given in publication PMC11288129, “Diversely evolved xibalbin variants from remipede venom inhibit potassium channels and activate PKA-II and Erk1/2 signaling” (BMC Biology, 2024).
“Also recorded” adds a separate entry of the source. Positions of bridges follow the written chain, without caps; N, C: chain ends. No end group written: not given here.

System: PKA-II (phospho-RIIα/β) in rat DRG neurons
Assay: High-content imaging of PKA-II activity (pRII) in DRG sensory neurons
Format: cell-based
Conditions: for PKA-II activation: 5 and 30 min, 0.005 to 0.8 µg/µL; for increase in phospho-PKA-II intensity: 5 min; for pRII response by neuron size: xibalbins 0.8 µg/µL
Method: To gauge sensory neuron activity in response to various activating stimuli, including electrical activity, phosphorylation state detection of protein kinase A type II (PKA-II) and MAP kinase Erk1/2 can act as surrogate measurements. Consequently, we tested for increased phosphorylation states in a concentration-dependent manner following exposure to xibalbins. Dissociated DRG neurons were cultured overnight and then exposed to increasing concentrations of the corresponding xibalbins for 5 min and 30 min, respectively. As a positive control, forskolin (Fsk) was also used to induce cAMP synthesis. The activity of PKA-II was monitored by antibodies directed against the phosphorylation site of the inhibitory regulatory subunits RIIα/β, which is exclusively accessible when the catalytic kinase domain is released during kinase activation. For measuring Erk1/2 activity, phospho-sites on Erk1/2 (T202/Y204) were monitored through immunofluorescence, as these sites are phosphorylated during activation. Cellular images were captured using HCI microscopy (Fig. 8A), and the average intensity of each phospho-antibody was quantified (Fig. 8B).
Fig. 8 A Representative images of rat DRG neurons stimulated with PBS (Ctrl) and xib1b (0.8 µg/µL). Cells were stained for UCHL1, pRII, pERK1/2, and Hoechst followed by fixation and staining with standard immunocytochemistry protocols. Green-encircled neurons indicate automatically selected objects. Scale bar: 100 µm. B Mean intensities of UCHL1, pRII, and pERK1/2. The same UCHL1 intensities were observed among tested groups. Forskolin (Fsk), an activator of adenylyl cyclase, was used as a positive control. Fsk at 6 µM concentration induced an increase in pRII and pERK1/2 intensities at 5 and 30 min. Number of analyzed cells per replica: 750 ± 200. Eight independent replicas. C–F Concentration responses of xibalbin toxins (0.005 to 0.8 µg/µL) and mean intensities of pRII and pERK1/2 at 5 min and 30 min. G–H Size versus pRII and pErk1/2 intensities of cells treated with 0.8 µg/µL of xib1 and xib13. Small-sized cells were responding to xibalbins. Statistical significance was assessed using one-way ANOVA with Dunnett’s post hoc test. Data represent mean ± S.E.M (standard error of the mean), n = 4, see “Methods” for details and Additional File 6: Table S2 for individual data values
Male Sprague Dawley rats (250–400 g, 8–16 weeks old) were obtained from Envigo. Rats were kept in 12 h of light/darkness cycles. All experiments were performed in accordance with the German animal welfare law with permission of the District Government for Nature and Environment, NRW (84–02.05.20.13.045, 4.18.003). Rats were scarified by slow inhalation of CO2 which was followed by decapitation. DRGs were extracted from rats, deheated, pooled, and incubated in Neurobasal A/B27 medium (Invitrogen, #12349–015) supplemented with B-27 (Invitrogen #17504), L-glutamine 1:400, L-glutamate 1:270.3, and penicillin/streptomycin 1:100 containing 0.2 U/mL collagenase P (collagenase P, Roche, #1213857) and incubated for 1 h at 37 °C, 5% CO2. DRGs were dissociated with pasteur pipettes and axon stumps were separated by BSA (Sigma-Aldrich, # A2153-100G) gradient centrifugation (14% BSA, 120 g, 8 min). Cells were resuspended in NBA medium, plated in 96-well imaging plate (Greiner BioOne Sensoplate, Black, #655896) precoated with poly-L-ornithine hydrochloride (0.1 mg/ml Sigma, #P2533)/laminin (5 µg/ml Invitrogen, #23017–015), and incubated overnight at 37 °C, 5% CO2.
DRGs were stimulated after overnight incubation. Compounds were prepared as tenfold concentrated stock solutions, diluted in PBS (PAA, cat# H15-002), in v-bottom plates; 50 µL media from culture wells were mixed with the […] stock solutions, and 50 µL added back to the respective wells. Stimulation was performed with automated multichannel pipette and cells were kept in heated block during the stimulation. […]

Sequence	PKA-II activation	increase in phospho-PKA-II intensity (0.4 µg/µL (74 µM), q = 3.29)	increase in phospho-PKA-II intensity (0.8 µg/µL (148 µM), q = 4.17)	change in phospho-PKA-II intensity (30 min)	pRII response by neuron size
KRSCIRRFGRCDHRPNDCCYNSSCRCNLWGSNCRCQRMGLFQKWGK (disulfide 4-19, 11-24, 18-35, 26-33) [xib13]	increase PKA-II and Erk1/2 sensitization signaling; also recorded: increased PKA-II and pErk1/2 activity	up to 1.21 fold	up to 1.21 fold	No change	increased phosphorylation signals in both small-sized and large-sized sensory neurons
RLFCIRHHKYCGHRPKRCCSGLFCRCNTFGTNCRCQSKGALGKLI (disulfide 4-19, 11-24, 18-35, 26-33) [xib1]	increase PKA-II and Erk1/2 sensitization signaling; also recorded: increased PKA-II and pErk1/2 activity				increased phosphorylation signals in both small-sized and large-sized sensory neurons
